Assay results: the CheMixHub ionic liquid set
± gives the uncertainty stated by the source.

Test: xn = mol fraction of the nth substance listed
Settings: 101.3 kPa

CCCCCC[NH2+]CCN.O=S(=O)([N-]S(=O)(=O)C(F)(F)F)C(F)(F)F + O
Settings	electrical conductivity [S/m]	viscosity [mPa·s]
308.15 K, x1 = 0.5022	0.182 ± 0.004	77.8 ± 2.4
318.15 K, x1 = 0.5763	0.188 ± 0.0038	50.3 ± 1.4
323.15 K, x1 = 0.401	0.589 ± 0.012	21.2 ± 0.6
328.15 K, x1 = 0.5022	0.42 ± 0.01	29.1 ± 0.8
328.15 K, x1 = 0.6828	0.233 ± 0.005	45.5 ± 1.3
338.15 K, x1 = 0.5022	0.6 ± 0.1	19.7 ± 0.5
343.15 K, x1 = 0.6828	0.428 ± 0.009	24.2 ± 0.7
343.15 K, x1 = 0.8154	0.321 ± 0.006	25.9 ± 0.7
348.15 K, x1 = 0.401	1.29 ± 0.03	9 ± 0.24
348.15 K, x1 = 0.5763	0.625 ± 0.013	15 ± 0.4
353.15 K, x1 = 0.5763	0.729 ± 0.015	12.8 ± 0.3
